From ChEMBL document CHEMBL1671830, “Discovery of PSI-353661, a Novel Purine Nucleotide Prodrug for the Treatment of HCV Infection” (ACS Med Chem Lett, 2011) come the findings set out here.

By EC90 is commonly meant the point of the concentration-response curve where the effect stands at 90%. Low readings indicate greater potency, high ones weaker potency. A word on the IC50: it is the concentration that inhibits the measured activity by half. Higher therefore signals a need for much substance.

Series [1] deals with Liver. Nature of the series: Metabolic stability in rat liver assessed as (2S)-2-((((2R,3R,4R,5R)-5-(2-amino-6-methoxy-9H-purin-9-yl)-4-fluoro-3-hydroxy-4-methyltetrahydrofuran-2-yl)methoxy)(hydroxy)phosphorylamino)propanoic acid level at 60 uCi, po after 6 hrs. The class given is ADME, organism-based. As to conditions: in vivo.
In series [2] the test system is Plasma. Nature of the series: Metabolic stability in rat plasma assessed as beta-D-2'-Deoxy-2'-R-fluoro-2'-beta-C-methylguanosine level at 60 uCi, po after 6 hrs. The following applies: in vivo. The series is classed as ADME, organism-based.
For series [3], the system named is Liver. Nature of the series: Metabolic stability in rat liver assessed as ((2R,3R,4R,5R)-5-(2-amino-6-oxo-1H-purin-9(6H)-yl)-4-fluoro-3-hydroxy-4-methyltetrahydrofuran-2-yl)methyl trihydrogen diphosphate level at 60 uCi, po after 1 hr. The following applies: in vivo. The series is classed as ADME, organism-based.
The subject of series [4] is Plasma. The series is described as follows: Metabolic stability in rat plasma assessed as (2S)-2-((((2R,3R,4R,5R)-5-(2-amino-6-methoxy-9H-purin-9-yl)-4-fluoro-3-hydroxy-4-methyltetrahydrofuran-2-yl)methoxy)(hydroxy)phosphorylamino)propanoic acid level at 60 uCi, po after 6 hrs. The series is classed as ADME, organism-based. As to conditions: in vivo.
The test system of series [5] is Liver. The series is described as follows: Metabolic stability in rat liver assessed as ((2R,3R,4R,5R)-5-(2-amino-6-oxo-1H-purin-9(6H)-yl)-4-fluoro-3-hydroxy-4-methyltetrahydrofuran-2-yl)methyl tetrahydrogen triphosphate level at 60 uCi, po after 1 hr. The series is classed as ADME, organism-based. The following applies: in vivo.
The subject of series [6] is Plasma. The series is described as follows: Metabolic stability in rat plasma assessed as PSI-353661 level at 60 uCi, po after 1 hr. The series is classed as ADME, organism-based. The following applies: in vivo.
The subject of series [7] is Liver. The series is described as follows: Metabolic stability in rat liver assessed as ((2R,3R,4R,5R)-5-(2-amino-6-oxo-1H-purin-9(6H)-yl)-4-fluoro-3-hydroxy-4-methyltetrahydrofuran-2-yl)methyl trihydrogen diphosphate level at 60 uCi, po after 6 hrs. The series is classed as ADME, organism-based. As to conditions: in vivo.
Series [8] deals with Liver. Nature of the series: Metabolic stability in rat liver assessed as ((2R,3R,4R,5R)-5-(2-amino-6-oxo-1H-purin-9(6H)-yl)-4-fluoro-3-hydroxy-4-methyltetrahydrofuran-2-yl)methyl dihydrogen phosphate level at 60 uCi, po after 1 hr. As to conditions: in vivo. The class given is ADME, organism-based.
For series [9], the system named is Liver. The series is described as follows: Metabolic stability in rat liver assessed as beta-D-2'-Deoxy-2'-R-fluoro-2'-beta-C-methylguanosine level at 60 uCi, po after 1 hr. As to conditions: in vivo. The series is classed as ADME, organism-based.
Series [10] has as its system Liver. The series is described as follows: Metabolic stability in rat liver assessed as ((2R,3R,4R,5R)-5-(2-amino-6-oxo-1H-purin-9(6H)-yl)-4-fluoro-3-hydroxy-4-methyltetrahydrofuran-2-yl)methyl tetrahydrogen triphosphate level at 60 uCi, po after 6 hrs. As to conditions: in vivo. The class given is ADME, organism-based.
Series [11] relates to Plasma. The series is described as follows: Metabolic stability in rat plasma assessed as (2S)-isopropyl 2-((((2R,3R,4R,5R)-5-(2-amino-6-methoxy-9H-purin-9-yl)-4-fluoro-3-hydroxy-4-methyltetrahydrofuran-2-yl)methoxy)(phenoxy)phosphorylamino)propanoate level at 60 uCi, po after 6 hrs. The class given is ADME, organism-based. The following applies: in vivo.
The test system of series [12] is Plasma. The series is described as follows: Metabolic stability in rat plasma assessed as (2S)-2-((((2R,3R,4R,5R)-5-(2-amino-6-methoxy-9H-purin-9-yl)-4-fluoro-3-hydroxy-4-methyltetrahydrofuran-2-yl)methoxy)(hydroxy)phosphorylamino)propanoic acid level at 60 uCi, po after 1 hr. As to conditions: in vivo. The class given is ADME, organism-based.
Series [13] relates to Liver. Nature of the series: Metabolic stability in rat liver assessed as ((2R,3R,4R,5R)-5-(2-amino-6-oxo-1H-purin-9(6H)-yl)-4-fluoro-3-hydroxy-4-methyltetrahydrofuran-2-yl)methyl dihydrogen phosphate level at 60 uCi, po after 6 hrs. The series is classed as ADME, organism-based. As to conditions: in vivo.
Series [14] deals with Plasma. Nature of the series: Metabolic stability in rat plasma assessed as (2S)-isopropyl 2-((((2R,3R,4R,5R)-5-(2-amino-6-methoxy-9H-purin-9-yl)-4-fluoro-3-hydroxy-4-methyltetrahydrofuran-2-yl)methoxy)(phenoxy)phosphorylamino)propanoate level at 60 uCi, po after 1 hr. The series is classed as ADME, organism-based. As to conditions: in vivo.
The test system of series [15] is Liver. Nature of the series: Metabolic stability in rat liver assessed as (2S)-2-((((2R,3R,4R,5R)-5-(2-amino-6-methoxy-9H-purin-9-yl)-4-fluoro-3-hydroxy-4-methyltetrahydrofuran-2-yl)methoxy)(hydroxy)phosphorylamino)propanoic acid level at 60 uCi, po after 1 hr. The series is classed as ADME, organism-based. The following applies: in vivo.
The subject of series [16] is Liver. Nature of the series: Metabolic stability in rat liver assessed as beta-D-2'-Deoxy-2'-R-fluoro-2'-beta-C-methylguanosine level at 60 uCi, po after 6 hrs. The series is classed as ADME, organism-based. The following applies: in vivo.
In series [17] the test system is Plasma. Nature of the series: Metabolic stability in rat plasma assessed as beta-D-2'-Deoxy-2'-R-fluoro-2'-beta-C-methylguanosine level at 60 uCi, po after 1 hr. The series is classed as ADME, organism-based. The following applies: in vivo.
In series [18] the test system is Plasma. Nature of the series: Metabolic stability in rat plasma assessed as PSI-353661 level at 60 uCi, po after 6 hrs. The following applies: in vivo. The series is classed as ADME, organism-based.
For series [19], the system named is Hepatitis C virus. Nature of the series: Antiviral activity against HCV by cell-based replicon assay. The series is classed as functional, Hepacivirus hominis. In general terms: In antiviral work, replicon cells carry a viral genome segment that copies itself.
Series [20] is described as follows: Inhibition of HCV NS5B polymerase. Details: species or system Hepacivirus hominis.

Turning to `[3H]c1nc2c(OC)nc(N)nc2n1[C@@H]1O[C@H](COP(=O)(O)N[C@@H](C)C(=O)OC(C)C)[C@@H](O)[C@@]1(C)F`, the Stability in series [1] turned out to be 572 cpm; in [2], 3848 cpm; in [3], 988 cpm; in series [4], 288 cpm; in series [5] it was 384 cpm; in [6], 1112 cpm. Also, the Stability in series [7] is on record as 1620 cpm; in [8] it was 1828 cpm; in [9], 4224 cpm; in [10], 460 cpm; in series [11] it was 272 cpm; in [12] it was 920 cpm. Also, the Stability in [13] was found to be 1920 cpm; in series [14], 1160 cpm; in series [15], 1648 cpm; in [16] it was 11512 cpm; in series [17] it was 1376 cpm; in [18], 368 cpm.
In series [19], `C[C@@]1(F)[C@H](O)[C@@H](CO)O[C@H]1n1cnc2c(O)nc(N)nc21` yielded a concentration for an effect of 90% (EC90) of 69.2 µM.
`C[C@@]1(F)[C@H](O)[C@@H](COP(=O)(O)OP(=O)(O)OP(=O)(O)O)O[C@H]1n1cnc2c(=O)[nH]c(N)nc21` [PSI-352666] returned an IC50 in series [20] of 5.94 µM.
